The record followed here is ChEMBL document CHEMBL1201862, “PubChem BioAssay data set” (2004).

Molecules are shown by their SMILES. Activity calls are given as the source filed them.

By AC50 is commonly meant the concentration at which the activity in the assay is half-maximal. The IC50 is the midpoint of a concentration-inhibition curve. In general, EC50 refers to the concentration at which the effect is half-maximal.

For assay [1], the target named is Protein disulfide-isomerase (Homo sapiens, UniProt P07237). Put plainly: PDI inhibitors, insulin turbidity readout, confirmation, biochemical, dry powder samples, set 2 (AID 652146).
Protein disulfide-isomerase, sequence (P07237 whole entry): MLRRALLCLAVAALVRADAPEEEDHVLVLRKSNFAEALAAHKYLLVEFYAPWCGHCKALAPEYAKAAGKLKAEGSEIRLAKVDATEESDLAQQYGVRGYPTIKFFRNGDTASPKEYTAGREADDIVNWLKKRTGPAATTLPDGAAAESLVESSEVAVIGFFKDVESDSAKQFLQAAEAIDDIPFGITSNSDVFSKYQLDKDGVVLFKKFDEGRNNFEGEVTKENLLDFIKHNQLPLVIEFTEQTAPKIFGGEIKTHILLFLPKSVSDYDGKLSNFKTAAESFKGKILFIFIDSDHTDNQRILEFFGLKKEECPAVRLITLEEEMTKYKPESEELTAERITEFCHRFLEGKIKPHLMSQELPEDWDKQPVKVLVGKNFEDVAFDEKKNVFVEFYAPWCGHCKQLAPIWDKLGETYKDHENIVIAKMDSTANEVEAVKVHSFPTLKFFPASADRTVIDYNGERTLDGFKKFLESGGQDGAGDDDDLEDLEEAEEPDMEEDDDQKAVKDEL
Assay [2] is described as follows: HEK293 cell cytotoxicity, dose response, cytotoxicity control, ATP luminescence, dry powder, Set6 (AID 743142). The class given is functional, cell-based.
A short description of assay [3]: A549 cell cytotoxicity, dose response, cytotoxicity control, CellTiter-Glo luminescence, dry powder, set 3 (AID 743146). The class given is functional, cell-based. For orientation: ATP-based viability assays read luminescence as a measure of living cells.
The next assay concerns the target Fatty acid synthase (Homo sapiens, UniProt P49327). Put plainly: FAS thioesterase domain inhibitors, SAR follow-up, biochemical, endpoint fluorescence intensity, powder samples (AID 652164). It counts as functional.
Assay [4] addresses Metabotropic glutamate receptor 5 (Rattus norvegicus, UniProt P31424). Put plainly: Identification of a glycine sulfonamide based non-MPEP site positive allosteric potentiator (PAM) of mGlu5 (calcium_assay). The class given is functional.
A short description of assay [5]: cells. The note with it: HEK293.
A short description of assay [6]: cells. The note with it: A549.
Assay [7] deals with Induced myeloid leukemia cell differentiation protein Mcl-1 (Homo sapiens, UniProt Q07820). It counts as functional.
Induced myeloid leukemia cell differentiation protein Mcl-1, sequence (Q07820 whole entry): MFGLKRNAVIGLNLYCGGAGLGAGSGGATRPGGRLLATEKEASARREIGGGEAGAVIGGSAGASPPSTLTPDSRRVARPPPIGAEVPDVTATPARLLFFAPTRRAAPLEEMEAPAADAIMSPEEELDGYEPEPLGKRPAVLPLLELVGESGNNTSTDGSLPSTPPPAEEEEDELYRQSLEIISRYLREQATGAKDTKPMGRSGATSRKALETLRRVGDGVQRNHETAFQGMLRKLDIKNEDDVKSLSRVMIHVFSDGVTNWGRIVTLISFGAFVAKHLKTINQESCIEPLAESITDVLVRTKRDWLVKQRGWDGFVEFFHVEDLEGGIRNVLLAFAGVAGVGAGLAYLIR
In assay [8] the target is T1, Mannose-6-phosphate isomerase (Homo sapiens, UniProt P34949).
T1 sequence (P34949 whole entry): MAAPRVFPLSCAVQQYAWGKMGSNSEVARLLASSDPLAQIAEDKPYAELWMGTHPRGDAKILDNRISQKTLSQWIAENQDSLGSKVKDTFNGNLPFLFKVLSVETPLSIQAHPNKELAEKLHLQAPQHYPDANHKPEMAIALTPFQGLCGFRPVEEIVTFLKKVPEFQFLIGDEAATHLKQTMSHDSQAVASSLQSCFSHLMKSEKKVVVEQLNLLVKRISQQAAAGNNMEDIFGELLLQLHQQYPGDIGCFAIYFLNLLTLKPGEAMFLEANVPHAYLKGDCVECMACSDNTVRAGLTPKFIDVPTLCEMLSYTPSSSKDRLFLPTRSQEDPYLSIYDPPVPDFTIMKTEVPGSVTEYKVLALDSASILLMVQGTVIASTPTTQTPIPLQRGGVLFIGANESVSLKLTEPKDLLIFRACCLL
Put plainly: human PMI inhibitors, high substrate, primary screen, biochemical, fluorescence intensity, high mannose 6-phosphate (AID 1220).

Another assay has as its target Genome polyprotein (dengue virus type 2, UniProt P29990). Put plainly: Dengue-2 NS5 methyltransferase inhibitors, primary screen, biochemical, confirmation dose response (AID 588689). The class given is functional.
Assay [9] has as its target T2, Histone-lysine N-methyltransferase NSD2 (Homo sapiens, UniProt O96028).
T2 sequence (O96028 whole entry): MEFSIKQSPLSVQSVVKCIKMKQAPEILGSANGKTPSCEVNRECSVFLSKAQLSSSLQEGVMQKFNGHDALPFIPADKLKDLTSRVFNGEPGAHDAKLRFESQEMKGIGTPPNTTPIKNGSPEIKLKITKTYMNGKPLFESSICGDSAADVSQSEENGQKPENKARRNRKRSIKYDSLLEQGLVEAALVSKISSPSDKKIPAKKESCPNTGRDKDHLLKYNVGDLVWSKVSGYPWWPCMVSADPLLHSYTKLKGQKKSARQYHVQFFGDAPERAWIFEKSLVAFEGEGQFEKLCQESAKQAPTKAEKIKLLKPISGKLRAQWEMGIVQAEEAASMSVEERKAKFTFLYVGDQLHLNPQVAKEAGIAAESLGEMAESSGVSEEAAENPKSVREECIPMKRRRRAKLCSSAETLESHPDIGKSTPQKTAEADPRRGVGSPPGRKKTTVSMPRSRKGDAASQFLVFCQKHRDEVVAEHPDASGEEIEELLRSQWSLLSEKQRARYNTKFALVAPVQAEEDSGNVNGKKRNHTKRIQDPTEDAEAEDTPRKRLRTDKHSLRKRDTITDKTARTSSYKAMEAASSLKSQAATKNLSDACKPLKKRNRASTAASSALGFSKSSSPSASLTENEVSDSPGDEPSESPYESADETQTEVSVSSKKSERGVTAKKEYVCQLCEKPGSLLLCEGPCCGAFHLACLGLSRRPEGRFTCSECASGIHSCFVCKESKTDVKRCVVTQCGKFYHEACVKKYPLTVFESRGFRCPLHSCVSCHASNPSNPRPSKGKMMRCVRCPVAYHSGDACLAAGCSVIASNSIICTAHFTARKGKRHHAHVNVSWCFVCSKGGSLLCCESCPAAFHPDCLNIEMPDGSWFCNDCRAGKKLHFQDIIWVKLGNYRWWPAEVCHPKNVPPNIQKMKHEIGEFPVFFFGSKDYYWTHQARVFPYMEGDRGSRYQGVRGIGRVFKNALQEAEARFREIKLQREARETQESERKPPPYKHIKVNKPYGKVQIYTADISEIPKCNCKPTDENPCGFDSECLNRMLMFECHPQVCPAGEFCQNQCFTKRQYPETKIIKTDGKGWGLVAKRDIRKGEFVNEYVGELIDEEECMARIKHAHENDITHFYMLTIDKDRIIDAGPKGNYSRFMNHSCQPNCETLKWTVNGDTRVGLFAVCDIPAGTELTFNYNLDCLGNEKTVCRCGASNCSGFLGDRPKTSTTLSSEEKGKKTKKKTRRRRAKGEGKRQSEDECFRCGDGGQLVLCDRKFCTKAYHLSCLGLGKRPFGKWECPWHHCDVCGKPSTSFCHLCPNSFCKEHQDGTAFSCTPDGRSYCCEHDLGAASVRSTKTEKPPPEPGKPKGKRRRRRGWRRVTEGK
It counts as biochemical.

Assay [10] addresses RNA-editing ligase 1, mitochondrial (Trypanosoma brucei brucei, UniProt P86926). Put plainly: TbREL1 ligase inhibitors, dose response, biochemical, fluorescence, Trypanosoma brucei (AID 1117295). It counts as functional.
For another assay, the target named is Paired box protein Pax-8 (Homo sapiens, UniProt Q06710). Put plainly: inhibitors of PAX8-driven TPO luciferase reporter, dose response, RMG-I cells, cherry-pick (AID 687027).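 Also: luciferase reporter driven by Pax8 target thyroperoxidase promoter measured by SteadyGlo luminescence.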 The class given is functional, cell-based. For orientation: In a reporter assay the amount or activity of a reporter protein is the signal.
Paired box protein Pax-8, sequence (Q06710 whole entry): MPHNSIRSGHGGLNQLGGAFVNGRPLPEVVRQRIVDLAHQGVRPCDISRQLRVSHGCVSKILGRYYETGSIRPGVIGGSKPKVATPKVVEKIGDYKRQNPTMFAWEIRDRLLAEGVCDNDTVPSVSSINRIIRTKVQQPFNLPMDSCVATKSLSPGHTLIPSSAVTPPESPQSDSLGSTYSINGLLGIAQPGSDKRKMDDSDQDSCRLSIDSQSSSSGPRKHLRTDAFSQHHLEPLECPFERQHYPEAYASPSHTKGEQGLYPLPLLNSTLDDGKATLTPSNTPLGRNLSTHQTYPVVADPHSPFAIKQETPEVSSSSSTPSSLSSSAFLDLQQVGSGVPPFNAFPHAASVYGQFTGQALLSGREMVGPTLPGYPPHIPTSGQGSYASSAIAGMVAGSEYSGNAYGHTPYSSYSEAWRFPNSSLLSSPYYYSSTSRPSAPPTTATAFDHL
Assay [11] can be described thus: IOSE-T80 ovarian epithelial cell cytotoxicity, dose response, cytotoxicity control for PAX8 inhibitor project, plate reader, dry powder samples (AID 743045). The class given is functional, cell-based.
Assay [12] in a line: A2780 ovarian cancer cell cytotoxicity, dose response, cytotoxicity control, plate reader, dry powder samples (AID 743046). The class given is functional, cell-based.
A short description of assay [13]: NIH:OVCAR-3 ovarian cancer cell cytotoxicity, dose response, PAX8 inhibitor project, plate reader, dry powder samples (AID 743044). It counts as functional, cell-based.
The nature of assay [14]: IGROV1 ovarian cancer cell cytotoxicity, dose response, PAX8 inhibitor project, plate reader, dry powder samples (AID 743043). The class given is functional, cell-based. The note with it: IGROV-1.
The nature of assay [15]: cytotoxicity in OVCAR8 ovarian cancer cells, dose response, PAX8 project, cell-based, plate reader, dry powder samples (AID 743197). It counts as functional. The note with it: OVCAR-8.
In the next assay the test system is HEK293. Put plainly: HEK293T cell cytotoxicity, dose response, cytotoxicity control, ATP luminescence, cherry-pick samples (AID 687005).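 Also: cells exposed to compound for 48 hours.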 The note with it: Homo sapiens. It counts as functional, cell-based.
Assay [16] in a line: HEK293 Cytotoxicity Assay Measured in Cell-Based System Using Plate Reader - 7071-01_Inhibitor_Dose_CherryPick_Activity_Set2. It counts as functional.
The nature of assay [17]: MITF Orthogonal Assay: SK-MEL-5 CTG Assay Measured in Cell-Based System Using Plate Reader - 2084-02_Inhibitor_Dose_DryPowder_Activity_Set7. The class given is functional.
The nature of assay [18]: MITF: Counter assay: A375 proliferation Measured in Cell-Based System Using Plate Reader - 2084-03_Inhibitor_Dose_DryPowder_Activity_Set8. It counts as functional. The note with it: A-375.
The nature of assay [19]: TRPM1 promoter luciferase reporter signal decrease, dose response, MITF inhibitor project, cell-based, SK-MEL-5, dry powder, set 8 (AID 624430). It counts as functional.
Assay [20] is described as follows: Luminescence Cell-Based Dose Confirmation HTS to Identify Activators of 5'UTR Stem-Loop Driven Alpha-Synuclein mRNA Translation in H4 Neuroglioblastoma Cells. [Related pubchem assays: 1829 (Project Summary), 1814 (Primary HTS)]. The class given is functional.
Assay [21] can be described thus: Luminescence Cell-Based Dose Response HTS to Identify Activators of Luciferase Translation or Activity in H4 […] Cells. [Related pubchem assays: 1829 (Project Summary), 1814 (Primary HTS)]. It counts as functional.
For the next assay, the system named is H4. Put plainly: Luminescence Cell-Based Dose Response HTS to Identify Activators of 5'UTR Stem-Loop Driven Prion Protein mRNA Translation in H4 Neuroglioblastoma Cells. [Related pubchem assays: 1829 (Project Summary), 1814 (Primary HTS)]. The class given is functional. The note with it: Homo sapiens.
The next assay concerns the target Transthyretin (Homo sapiens, UniProt P02766). Put plainly: Luminescence-based cell-based high throughput dose response assay to identify activators of Transthyretin (TTR) transcription. The class given is functional.
The nature of assay [22]: microbe, parasite or virus in culture. The class given is functional. The note with it: Mycobacterium tuberculosis.
Assay [23] is described as follows: cells. The note with it: HEK293. The source holds these as a separate data set.

Metabotropic glutamate receptor 5, sequence (P31424 whole entry): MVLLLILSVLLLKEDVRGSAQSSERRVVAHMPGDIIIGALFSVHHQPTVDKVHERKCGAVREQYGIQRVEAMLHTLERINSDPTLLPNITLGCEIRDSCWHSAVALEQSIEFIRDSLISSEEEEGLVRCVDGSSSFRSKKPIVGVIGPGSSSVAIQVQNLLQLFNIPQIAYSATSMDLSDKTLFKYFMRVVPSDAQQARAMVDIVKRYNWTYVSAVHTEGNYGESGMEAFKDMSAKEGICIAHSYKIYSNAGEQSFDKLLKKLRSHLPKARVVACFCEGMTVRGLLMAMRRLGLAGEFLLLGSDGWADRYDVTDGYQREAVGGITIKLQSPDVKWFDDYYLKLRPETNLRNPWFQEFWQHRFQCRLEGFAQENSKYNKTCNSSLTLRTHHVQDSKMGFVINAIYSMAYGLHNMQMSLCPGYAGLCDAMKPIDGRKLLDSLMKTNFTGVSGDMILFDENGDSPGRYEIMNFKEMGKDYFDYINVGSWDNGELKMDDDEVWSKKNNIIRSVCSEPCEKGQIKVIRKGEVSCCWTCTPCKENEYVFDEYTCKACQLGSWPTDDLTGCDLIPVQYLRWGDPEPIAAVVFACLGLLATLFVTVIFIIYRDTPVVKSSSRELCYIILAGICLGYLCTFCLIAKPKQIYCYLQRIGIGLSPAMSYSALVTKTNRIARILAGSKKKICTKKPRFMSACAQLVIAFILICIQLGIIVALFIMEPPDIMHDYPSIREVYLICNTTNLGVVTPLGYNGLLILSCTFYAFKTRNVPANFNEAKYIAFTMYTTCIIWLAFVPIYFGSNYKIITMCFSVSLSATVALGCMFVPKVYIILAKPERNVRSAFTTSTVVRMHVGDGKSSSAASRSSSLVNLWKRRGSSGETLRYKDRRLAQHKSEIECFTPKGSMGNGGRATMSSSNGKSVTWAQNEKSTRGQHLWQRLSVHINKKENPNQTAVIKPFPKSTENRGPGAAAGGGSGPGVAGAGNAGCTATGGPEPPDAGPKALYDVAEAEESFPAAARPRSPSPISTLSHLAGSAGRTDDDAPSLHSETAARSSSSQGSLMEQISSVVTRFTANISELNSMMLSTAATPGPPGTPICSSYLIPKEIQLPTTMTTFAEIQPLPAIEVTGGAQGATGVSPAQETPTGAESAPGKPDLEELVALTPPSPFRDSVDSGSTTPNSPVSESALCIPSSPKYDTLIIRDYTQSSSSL
Fatty acid synthase, sequence (P49327 whole entry, the tested form may be a part): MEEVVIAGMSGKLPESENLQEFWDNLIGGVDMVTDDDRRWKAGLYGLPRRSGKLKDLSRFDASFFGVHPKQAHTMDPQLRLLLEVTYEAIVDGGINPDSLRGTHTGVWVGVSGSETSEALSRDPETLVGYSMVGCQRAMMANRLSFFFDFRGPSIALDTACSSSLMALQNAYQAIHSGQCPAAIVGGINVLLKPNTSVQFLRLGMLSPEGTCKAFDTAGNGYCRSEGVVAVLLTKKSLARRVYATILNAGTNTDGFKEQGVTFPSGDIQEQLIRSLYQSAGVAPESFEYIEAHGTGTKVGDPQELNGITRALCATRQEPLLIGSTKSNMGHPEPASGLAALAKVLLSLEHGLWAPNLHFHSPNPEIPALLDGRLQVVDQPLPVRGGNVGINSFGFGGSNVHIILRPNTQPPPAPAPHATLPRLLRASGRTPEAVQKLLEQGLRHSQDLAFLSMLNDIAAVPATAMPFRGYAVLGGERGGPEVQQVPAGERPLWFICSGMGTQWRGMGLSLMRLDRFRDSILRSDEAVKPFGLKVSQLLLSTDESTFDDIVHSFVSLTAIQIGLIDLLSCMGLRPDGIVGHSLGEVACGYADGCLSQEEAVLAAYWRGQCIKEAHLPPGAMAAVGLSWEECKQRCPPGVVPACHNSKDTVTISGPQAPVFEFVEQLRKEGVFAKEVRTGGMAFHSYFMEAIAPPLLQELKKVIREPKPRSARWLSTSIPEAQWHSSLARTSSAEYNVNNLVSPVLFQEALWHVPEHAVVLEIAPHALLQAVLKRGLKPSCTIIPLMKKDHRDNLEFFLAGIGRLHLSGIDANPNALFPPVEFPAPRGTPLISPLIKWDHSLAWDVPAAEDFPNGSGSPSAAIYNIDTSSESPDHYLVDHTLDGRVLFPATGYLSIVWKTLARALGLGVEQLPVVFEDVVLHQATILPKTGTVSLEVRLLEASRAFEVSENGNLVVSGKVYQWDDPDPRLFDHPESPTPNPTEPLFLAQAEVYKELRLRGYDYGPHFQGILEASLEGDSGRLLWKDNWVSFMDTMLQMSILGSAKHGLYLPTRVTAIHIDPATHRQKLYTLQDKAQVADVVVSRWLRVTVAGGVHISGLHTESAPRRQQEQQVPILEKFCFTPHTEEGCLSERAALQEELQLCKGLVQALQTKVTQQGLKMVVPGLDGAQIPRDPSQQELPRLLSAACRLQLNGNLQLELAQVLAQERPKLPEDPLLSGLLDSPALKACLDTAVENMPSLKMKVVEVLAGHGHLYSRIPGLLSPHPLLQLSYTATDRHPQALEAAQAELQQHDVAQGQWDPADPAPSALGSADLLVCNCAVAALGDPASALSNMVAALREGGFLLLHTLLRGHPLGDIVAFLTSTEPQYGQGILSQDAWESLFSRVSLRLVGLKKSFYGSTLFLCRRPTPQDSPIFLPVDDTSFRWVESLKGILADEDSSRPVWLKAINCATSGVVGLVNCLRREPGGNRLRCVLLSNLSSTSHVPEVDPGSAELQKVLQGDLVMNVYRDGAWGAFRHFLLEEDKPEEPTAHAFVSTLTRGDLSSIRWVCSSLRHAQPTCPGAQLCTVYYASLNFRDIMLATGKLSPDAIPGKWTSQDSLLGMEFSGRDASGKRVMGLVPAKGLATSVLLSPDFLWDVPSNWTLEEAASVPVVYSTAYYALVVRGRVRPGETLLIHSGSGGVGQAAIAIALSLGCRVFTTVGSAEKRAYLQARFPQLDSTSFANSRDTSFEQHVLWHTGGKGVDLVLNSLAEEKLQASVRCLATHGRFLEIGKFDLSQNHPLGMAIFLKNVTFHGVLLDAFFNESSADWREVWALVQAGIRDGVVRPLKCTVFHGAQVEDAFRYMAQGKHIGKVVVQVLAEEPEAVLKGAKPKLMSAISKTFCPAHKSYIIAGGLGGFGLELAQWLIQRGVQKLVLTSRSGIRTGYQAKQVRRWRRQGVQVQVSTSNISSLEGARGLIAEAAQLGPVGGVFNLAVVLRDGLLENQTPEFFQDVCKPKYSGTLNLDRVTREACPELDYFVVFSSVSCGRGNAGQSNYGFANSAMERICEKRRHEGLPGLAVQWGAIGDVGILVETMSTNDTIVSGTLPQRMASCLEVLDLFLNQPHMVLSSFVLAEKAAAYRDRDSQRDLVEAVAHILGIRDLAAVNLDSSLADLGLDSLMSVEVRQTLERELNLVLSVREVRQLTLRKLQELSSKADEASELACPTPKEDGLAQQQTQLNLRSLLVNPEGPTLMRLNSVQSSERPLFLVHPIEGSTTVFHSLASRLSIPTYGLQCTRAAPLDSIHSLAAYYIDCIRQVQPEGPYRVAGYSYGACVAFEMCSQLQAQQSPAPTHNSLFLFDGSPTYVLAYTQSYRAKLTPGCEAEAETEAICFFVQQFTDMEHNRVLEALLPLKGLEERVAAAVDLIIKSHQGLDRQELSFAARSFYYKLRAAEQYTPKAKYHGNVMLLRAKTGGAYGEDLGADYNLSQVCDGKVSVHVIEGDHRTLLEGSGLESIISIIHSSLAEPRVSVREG

With `CCOC(=O)C1(CCOc2ccccc2)CCN(Cc2ccc(OC)cc2)CC1`, the AC50 in [1] is > 30 µM (inactive).

As for `O=C(CCNC(=O)c1ccc2c(c1)OC(F)(F)O2)N[C@@H]1CCCc2ccccc21`, the values for the AC50 in assay [2] and in assay [3] were 7.51 µM (active) and > 52 µM (inactive), respectively.

Take `CCN(CC)S(=O)(=O)c1ccc(-c2csc(NC(=O)C3CCCC3)n2)cc1`: the 50% inhibitory concentration (IC50) at Fatty acid synthase was 1.18 µM (active).

As for `CS(=O)(=O)N(CC(=O)Nc1cccnc1F)c1ccccc1Cl`, the EC50 in [4] amounted to 1.69 µM.

In the case of `N#Cc1ccc(C(=O)NCCC(=O)N[C@@H]2CCCc3ccccc32)cc1`, the concentration at half-maximal activity (AC50) in assay [2] is 17.1 µM (active); in assay [3] it was > 52 µM (inactive).

Turning to `CSc1nc2ccccc2n1CCOc1ccccc1`, in “cells [5]”, the AC50 is > 52 µM (inactive).

Turning to `Cc1c(C(=O)NCc2cccc([N+](=O)[O-])c2)sc(=O)n1Cc1cccc(F)c1`, the AC50 in the assay “cells [6]” was 48.4 µM (active).

Take `O=C(Cc1csc(N2CCOCC2)n1)N/N=C/c1ccc(O)c(O)c1O`: the IC50 in assay [7] is 3.52 µM (active); in assay [8] it was 8.94 µM (active); on Genome polyprotein, > 100 µM (active); in [10], > 96.6 µM (inactive). Besides, the AC50 in [9] was > 20 µM (inactive).

Regarding `CCC(=O)Nc1nc(-c2ccc(S(=O)(=O)N(C)C)cc2)cs1`, the IC50 on Fatty acid synthase was 1.08 µM (active).

For `C[C@@H]1CCCCO[C@@H](CN(C)CC2CCCCC2)[C@H](C)CN([C@H](C)CO)C(=O)c2cc(NS(=O)(=O)c3ccc(Cl)cc3)ccc2O1`, the concentration at half-maximal activity (AC50) is 5.5 µM (active) on Paired box protein Pax-8; 41.4 µM (active) in [11]; 20.4 µM (active) in [12]; 23.4 µM (active) in [13]; 33.5 µM (active) in assay [14]; 25.6 µM (active) in assay [15].

Consider `COc1ccc(S(=O)(=O)Nc2ccc3c(c2)C(=O)N([C@H](C)CO)C[C@H](C)[C@@H](CN(C)S(=O)(=O)c2ccc(C)cc2)OCCCC[C@H](C)O3)cc1`, for which the AC50 at Paired box protein Pax-8 was 6.27 µM (active); in assay [11], 9.47 µM (active); in assay [12], 44 µM (active); in [13], 11.8 µM (active); in [14], 33.5 µM (active); in assay [15], 14.8 µM (active).

Take `CCS(=O)(=O)NCC[C@H]1CC[C@H](NS(=O)(=O)c2cccc(F)c2)[C@H](CO)O1`: the AC50 (in the assay with HEK293; in [16]) was 33.5 µM (active) each time.

`O=C1C(Nc2ccccc2)=CC(=O)c2ncccc21`: the AC50 in [17] was 0.195 µM (active); in [18] it was 16.2 µM (active); in [19] it was 0.413 µM (active).

On to `c1ccc(Sc2ncnc3c2oc2ccccc23)nc1`, for which the EC50 in assay [20] was 4.69 µM (active); in assay [21], 26.6 µM (active); in the assay with H4, 90.1 µM (active); on Transthyretin, > 167 µM (inactive).

For `CN(C(=O)CN(c1ccccc1Cl)S(C)(=O)=O)c1ccccc1`, in [4], the EC50 is 10 µM (inconclusive).

As for `N=c1oc2cc(O)ccc2cc1C(=O)Nc1ccc(Br)cc1`, the CC50 in assay [22] was 23.7 µM (active). Further, the AC50 in “cells [6]” and in “cells [23]” was > 52 µM (inactive) each time.

On to `O=C(C[C@@H]1CC[C@H]2[C@@H](COC[C@@H](O)CN2Cc2ccc(Cl)cc2)O1)NCc1cccc(F)c1`, for which the concentration at half-maximal activity (AC50) (with HEK293; in assay [16]) was 21.4 µM (active) throughout.

Regarding `CCOC(=O)C1CCN(C(=O)OC(C)(C)C)CC1`, the AC50 in assay [1] is > 30 µM (inactive).
